In brackets after ≈: the same amount, converted by molar mass.
Columns and labels:
[1] = test system: moxifloxacin-resistant strain H37Rv (gyrA^D94K) (MOX3); assay type: cell-based, Mycobacterium tuberculosis
[2] = test system: rifampin-resistant strain H37Rv (rpoB^S450L) (ATCC #35,838); assay type: cell-based, Mycobacterium tuberculosis
[3] = test system: isoniazid-resistant H37Rv (katG^del) (MS015); test: microbe, parasite or virus in culture; assay type: cell-based; conditions: > 80% reduction in growth, screened at 20, 2 and 0.2 mg/L, 7H9 complete medium; for MIC: Mycobacterium tuberculosis, H37RV, read-out: Growth inhibition cutoff, H37Rv (katG^del)
[4] = test system: M. tuberculosis mono-resistant strains; test: microbe, parasite or virus in culture; assay type: cell-based

## Nc1c(-c2nc(-c3ccc(F)cc3)no2)nnn1-c1ccc(Br)cc1 [Compound 11]
[1]
  Growth inhibition cutoff, H37Rv (gyrA^D94K): > 20 mg/L
[2]
  Growth inhibition cutoff, H37Rv (rpoB^S450L): > 20 mg/L
[3]
  Growth inhibition cutoff, H37Rv (katG^del): > 20 mg/L

## COc1ccccc1-n1nnc(-c2nc(-c3ccc(Br)cc3)no2)c1N [Compound 35]
[1]
  Growth inhibition cutoff, H37Rv (gyrA^D94K): > 20 mg/L
[2]
  Growth inhibition cutoff, H37Rv (rpoB^S450L): > 20 mg/L
[3]
  Growth inhibition cutoff, H37Rv (katG^del): > 20 mg/L

## CCOc1ccc(-c2noc(-c3nnn(-c4ccc(F)c(Cl)c4)c3N)n2)cc1 [Compound 41]
[1]
  Growth inhibition cutoff, H37Rv (gyrA^D94K): > 20 mg/L
[2]
  Growth inhibition cutoff, H37Rv (rpoB^S450L): > 20 mg/L
[3]
  Growth inhibition cutoff, H37Rv (katG^del): > 20 mg/L

## COc1ccc(Cl)cc1-n1nnc(-c2nc(-c3ccc(F)cc3)no2)c1N [Compound 27]
[1]
  Growth inhibition cutoff, H37Rv (gyrA^D94K): > 20 mg/L
[2]
  Growth inhibition cutoff, H37Rv (rpoB^S450L): 2 to 20 mg/L
[4]; Mycobacterium tuberculosis, read-out: growth inhibition cutoff
  MIC: 5.17 to 51.7 µM (≈ 2 to 20 µg/mL)
[3]
  MIC: > 20 µg/mL

## CCOc1ccc(-c2noc(-c3nnn(-c4ccccc4F)c3N)n2)cc1 [Compound 39]
[1]
  Growth inhibition cutoff, H37Rv (gyrA^D94K): > 20 mg/L
[2]
  Growth inhibition cutoff, H37Rv (rpoB^S450L): > 20 mg/L
[3]
  Growth inhibition cutoff, H37Rv (katG^del): > 20 mg/L

## CCOc1ccccc1-n1nnc(-c2nc(-c3ccc(F)cc3)no2)c1N [Compound 30]
[1]
  Growth inhibition cutoff, H37Rv (gyrA^D94K): > 20 mg/L
[2]
  Growth inhibition cutoff, H37Rv (rpoB^S450L): > 20 mg/L
[3]
  Growth inhibition cutoff, H37Rv (katG^del): > 20 mg/L

## Nc1c(-c2nc(-c3ccc(F)cc3)no2)nnn1-c1ccc(Cl)cc1 [Compound 10]
[1]
  Growth inhibition cutoff, H37Rv (gyrA^D94K): > 20 mg/L
[2]
  Growth inhibition cutoff, H37Rv (rpoB^S450L): > 20 mg/L
[3]
  Growth inhibition cutoff, H37Rv (katG^del): > 20 mg/L

## COc1ccc(-n2nnc(-c3nc(-c4ccc(F)cc4)no3)c2N)cc1Cl [Compound 17, 3-(3-chloro-4-methoxy-phenyl)-5-[3-(4-fluoro-phenyl)-[1,2,4]oxadiazol-5-yl]-3H-[1,2,3]triazol-4-ylamine]
[1]
  Growth inhibition cutoff, H37Rv (gyrA^D94K): > 20 mg/L
[2]
  Growth inhibition cutoff, H37Rv (rpoB^S450L): > 20 mg/L
[3]
  Growth inhibition cutoff, H37Rv (katG^del): > 20 mg/L

## Cc1c(-c2nc(-c3ccccc3F)no2)nnn1-c1cc(F)ccc1F [Compound 6]
[1]
  Growth inhibition cutoff, H37Rv (gyrA^D94K): > 20 mg/L
[2]
  Growth inhibition cutoff, H37Rv (rpoB^S450L): > 20 mg/L
[3]
  Growth inhibition cutoff, H37Rv (katG^del): > 20 mg/L

## CCOc1ccc(-c2noc(-c3nnn(-c4ccccc4Cl)c3N)n2)cc1 [Compound 40]
[1]
  Growth inhibition cutoff, H37Rv (gyrA^D94K): 2 to 20 mg/L
[2]
  Growth inhibition cutoff, H37Rv (rpoB^S450L): > 20 mg/L
[4]
  growth inhibition cutoff: 5.22 to 52.2 µM
[3]
  Growth inhibition cutoff, H37Rv (katG^del): > 20 mg/L

## Cc1c(-c2nc(-c3ccccc3F)no2)nnn1-c1ccc(Br)cc1 [Compound 5]
[1]
  Growth inhibition cutoff, H37Rv (gyrA^D94K): 2 to 20 mg/L
[2]
  Growth inhibition cutoff, H37Rv (rpoB^S450L): 2 to 20 mg/L
[3]
  Growth inhibition cutoff, H37Rv (katG^del): > 20 mg/L

## Nc1c(-c2nc(-c3ccc(Cl)cc3)no2)nnn1-c1ccc(Br)cc1F [Compound 31]
[1]
  Growth inhibition cutoff, H37Rv (gyrA^D94K): > 20 mg/L
[2]
  Growth inhibition cutoff, H37Rv (rpoB^S450L): > 20 mg/L
[3]
  Growth inhibition cutoff, H37Rv (katG^del): > 20 mg/L

## COc1ccc(-c2noc(-c3nnn(-c4cc(Cl)ccc4OC)c3N)n2)cc1 [Compound 37]
[1]
  Growth inhibition cutoff, H37Rv (gyrA^D94K): > 20 mg/L
[2]
  Growth inhibition cutoff, H37Rv (rpoB^S450L): > 20 mg/L
[3]
  Growth inhibition cutoff, H37Rv (katG^del): > 20 mg/L

## Nc1c(-c2nc(-c3ccc(F)cc3)no2)nnn1-c1ccccc1F [Compound 23]
[1]
  Growth inhibition cutoff, H37Rv (gyrA^D94K): > 20 mg/L
[2]
  Growth inhibition cutoff, H37Rv (rpoB^S450L): > 20 mg/L
[3]
  Growth inhibition cutoff, H37Rv (katG^del): > 20 mg/L

## Nc1c(-c2nc(-c3ccc(F)cc3)no2)nnn1-c1cccc(C(F)(F)F)c1 [Compound 19]
[1]
  Growth inhibition cutoff, H37Rv (gyrA^D94K): > 20 mg/L
[2]
  Growth inhibition cutoff, H37Rv (rpoB^S450L): > 20 mg/L
[3]
  Growth inhibition cutoff, H37Rv (katG^del): > 20 mg/L

## Nc1c(-c2nc(-c3ccc(F)cc3)no2)nnn1-c1cccc(F)c1 [Compound 15]
[1]
  Growth inhibition cutoff, H37Rv (gyrA^D94K): > 20 mg/L
[2]
  Growth inhibition cutoff, H37Rv (rpoB^S450L): > 20 mg/L
[3]
  Growth inhibition cutoff, H37Rv (katG^del): > 20 mg/L

## COc1cccc(-n2nnc(-c3nc(-c4ccc(F)cc4)no3)c2N)c1 [Compound 20]
[1]
  Growth inhibition cutoff, H37Rv (gyrA^D94K): 2 to 20 mg/L
[2]
  Growth inhibition cutoff, H37Rv (rpoB^S450L): 2 to 20 mg/L
[4]
  growth inhibition cutoff: 5.7 to 57 µM
[3]
  Growth inhibition cutoff, H37Rv (katG^del): > 20 mg/L

## Cc1c(-c2nc(-c3ccccc3F)no2)nnn1-c1ccc(F)c(Cl)c1 [Compound 4]
[1]
  Growth inhibition cutoff, H37Rv (gyrA^D94K): > 20 mg/L
[2]
  Growth inhibition cutoff, H37Rv (rpoB^S450L): > 20 mg/L
[3]
  Growth inhibition cutoff, H37Rv (katG^del): > 20 mg/L

## Nc1c(-c2nc(-c3ccc(F)cc3)no2)nnn1-c1ccc(F)cc1 [Compound 12]
[1]
  Growth inhibition cutoff, H37Rv (gyrA^D94K): > 20 mg/L
[2]
  Growth inhibition cutoff, H37Rv (rpoB^S450L): > 20 mg/L
[3]
  Growth inhibition cutoff, H37Rv (katG^del): > 20 mg/L

## Nc1c(-c2nc(-c3ccc(F)cc3)no2)nnn1-c1ccccc1 [Compound 9]
[1]
  Growth inhibition cutoff, H37Rv (gyrA^D94K): > 20 mg/L
[2]
  Growth inhibition cutoff, H37Rv (rpoB^S450L): > 20 mg/L
[3]
  Growth inhibition cutoff, H37Rv (katG^del): > 20 mg/L

## COc1ccccc1-n1nnc(-c2nc(-c3ccc(F)cc3)no2)c1N [Compound 26]
[1]
  Growth inhibition cutoff, H37Rv (gyrA^D94K): > 20 mg/L
[2]
  Growth inhibition cutoff, H37Rv (rpoB^S450L): > 20 mg/L
[3]
  Growth inhibition cutoff, H37Rv (katG^del): > 20 mg/L

## Cc1cccc(-n2nnc(-c3nc(-c4ccc(F)cc4)no3)c2N)c1 [Compound 18]
[1]
  Growth inhibition cutoff, H37Rv (gyrA^D94K): > 20 mg/L
[2]
  Growth inhibition cutoff, H37Rv (rpoB^S450L): > 20 mg/L
[3]
  Growth inhibition cutoff, H37Rv (katG^del): > 20 mg/L

## COc1ccc(-n2nnc(-c3nc(-c4ccc(F)cc4)no3)c2N)cc1OC [Compound 21]
[1]
  Growth inhibition cutoff, H37Rv (gyrA^D94K): > 20 mg/L
[2]
  Growth inhibition cutoff, H37Rv (rpoB^S450L): > 20 mg/L
[3]
  Growth inhibition cutoff, H37Rv (katG^del): > 20 mg/L

## Cc1ccccc1-c1noc(-c2nnn(-c3ccc(Br)cc3)c2C)n1 [Compound 8]
[1]
  Growth inhibition cutoff, H37Rv (gyrA^D94K): > 20 mg/L
[2]
  Growth inhibition cutoff, H37Rv (rpoB^S450L): > 20 mg/L
[3]
  Growth inhibition cutoff, H37Rv (katG^del): > 20 mg/L

## CCc1ccc(-n2nnc(-c3nc(-c4ccc(F)cc4)no3)c2N)cc1 [Compound 14]
[1]
  Growth inhibition cutoff, H37Rv (gyrA^D94K): > 20 mg/L
[2]
  Growth inhibition cutoff, H37Rv (rpoB^S450L): > 20 mg/L
[3]
  Growth inhibition cutoff, H37Rv (katG^del): > 20 mg/L

## COc1ccc(OC)c(-n2nnc(-c3nc(-c4ccc(F)cc4)no3)c2N)c1 [Compound 29]
[1]
  Growth inhibition cutoff, H37Rv (gyrA^D94K): > 20 mg/L
[2]
  Growth inhibition cutoff, H37Rv (rpoB^S450L): > 20 mg/L
[3]
  Growth inhibition cutoff, H37Rv (katG^del): > 20 mg/L

## Nc1c(-c2nc(-c3ccc(Br)cc3)no2)nnn1-c1ccc(F)cc1 [Compound 32]
[1]
  Growth inhibition cutoff, H37Rv (gyrA^D94K): > 20 mg/L
[2]
  Growth inhibition cutoff, H37Rv (rpoB^S450L): > 20 mg/L
[3]
  Growth inhibition cutoff, H37Rv (katG^del): > 20 mg/L

## COc1ccc(-c2noc(-c3nnn(-c4ccc(Cl)cc4)c3C)n2)cc1OC [Compound 38]
[1]
  Growth inhibition cutoff, H37Rv (gyrA^D94K): > 20 mg/L
[2]
  Growth inhibition cutoff, H37Rv (rpoB^S450L): > 20 mg/L
[3]
  Growth inhibition cutoff, H37Rv (katG^del): > 20 mg/L

## Nc1c(-c2nc(-c3ccccc3)no2)nnn1-c1ccc(C(F)(F)F)c(Cl)c1 [Compound 2]
[1]
  Growth inhibition cutoff, H37Rv (gyrA^D94K): > 20 mg/L
[2]
  Growth inhibition cutoff, H37Rv (rpoB^S450L): > 20 mg/L
[3]
  MIC: > 20 µg/mL

## Nc1c(-c2nc(-c3ccc(Br)cc3)no2)nnn1-c1cccc(F)c1 [Compound 33]
[1]
  Growth inhibition cutoff, H37Rv (gyrA^D94K): > 20 mg/L
[2]
  Growth inhibition cutoff, H37Rv (rpoB^S450L): > 20 mg/L
[3]
  Growth inhibition cutoff, H37Rv (katG^del): > 20 mg/L

## CCOc1ccccc1-n1nnc(-c2nc(-c3ccc(Br)cc3)no2)c1N [Compound 36]
[1]
  Growth inhibition cutoff, H37Rv (gyrA^D94K): > 20 mg/L
[2]
  Growth inhibition cutoff, H37Rv (rpoB^S450L): > 20 mg/L
[3]
  Growth inhibition cutoff, H37Rv (katG^del): > 20 mg/L

## Nc1c(-c2nc(-c3ccccc3)no2)nnn1-c1ccccc1F [Compound 1]
[1]
  Growth inhibition cutoff, H37Rv (gyrA^D94K): > 20 mg/L
[2]
  Growth inhibition cutoff, H37Rv (rpoB^S450L): > 20 mg/L
[3]
  Growth inhibition cutoff, H37Rv (katG^del): > 20 mg/L

## Nc1c(-c2nc(-c3ccc(F)cc3)no2)nnn1-c1ccc(F)cc1F [Compound 22]
[1]
  Growth inhibition cutoff, H37Rv (gyrA^D94K): > 20 mg/L
[2]
  Growth inhibition cutoff, H37Rv (rpoB^S450L): > 20 mg/L
[3]
  Growth inhibition cutoff, H37Rv (katG^del): > 20 mg/L

## COc1ccc(C)cc1-n1nnc(-c2nc(-c3ccc(F)cc3)no2)c1N [Compound 28]
[1]
  Growth inhibition cutoff, H37Rv (gyrA^D94K): > 20 mg/L
[2]
  Growth inhibition cutoff, H37Rv (rpoB^S450L): > 20 mg/L
[3]
  Growth inhibition cutoff, H37Rv (katG^del): > 20 mg/L

## Nc1c(-c2nc(-c3ccc(F)cc3)no2)nnn1-c1cccc(Cl)c1 [Compound 16]
[1]
  Growth inhibition cutoff, H37Rv (gyrA^D94K): > 20 mg/L
[2]
  Growth inhibition cutoff, H37Rv (rpoB^S450L): > 20 mg/L
[3]
  Growth inhibition cutoff, H37Rv (katG^del): > 20 mg/L

## Cc1c(-c2nc(-c3ccccc3Cl)no2)nnn1-c1cccc(F)c1 [Compound 7]
[1]
  Growth inhibition cutoff, H37Rv (gyrA^D94K): > 20 mg/L
[2]
  Growth inhibition cutoff, H37Rv (rpoB^S450L): > 20 mg/L
[3]
  Growth inhibition cutoff, H37Rv (katG^del): > 20 mg/L

## COc1ccc(-n2nnc(-c3nc(-c4ccc(F)cc4)no3)c2N)cc1 [Compound 13]
[1]
  Growth inhibition cutoff, H37Rv (gyrA^D94K): > 20 mg/L
[2]
  Growth inhibition cutoff, H37Rv (rpoB^S450L): > 20 mg/L
[3]
  MIC: > 20 µg/mL

Source: paper PMC8010095, “Discovery of novel antituberculosis agents among 3-phenyl-5-(1-phenyl-1H-[1,2,3]triazol-4-yl)-[1,2,4]oxadiazole derivatives targeting aminoacyl-tRNA synthetases” (Scientific Reports, 2021)
